The values below come from patent US10072026B2, “Crystalline form of 3-((1R,3s,5S)-3-((7-((5-methyl-1H-pyrazol-3-yl)amino)-1,6-naphthyridin-5-yl)amino)-8-azabicyclo[3.2.1]octan-8-yl)propanenitrile” (priority 2015, dated 2018).

The test system of assay [1] is IL-4 induced STAT6 phosphorylation in THP-1 human monocytic cells. In words: Cellular JAK potency assay, THP-1.
In another assay the target is JAK1 (Homo sapiens (Human), UniProt P23458). The assay can be described thus: LanthaScreen JAK biochemical assay (JAK1). To be noted: for Ki: read-out: JAK 1 (pKi) (converted). On the technique in general: TR-FRET usually uses a lanthanide donor and a delayed reading to cut background.
JAK1, sequence (P23458 whole entry): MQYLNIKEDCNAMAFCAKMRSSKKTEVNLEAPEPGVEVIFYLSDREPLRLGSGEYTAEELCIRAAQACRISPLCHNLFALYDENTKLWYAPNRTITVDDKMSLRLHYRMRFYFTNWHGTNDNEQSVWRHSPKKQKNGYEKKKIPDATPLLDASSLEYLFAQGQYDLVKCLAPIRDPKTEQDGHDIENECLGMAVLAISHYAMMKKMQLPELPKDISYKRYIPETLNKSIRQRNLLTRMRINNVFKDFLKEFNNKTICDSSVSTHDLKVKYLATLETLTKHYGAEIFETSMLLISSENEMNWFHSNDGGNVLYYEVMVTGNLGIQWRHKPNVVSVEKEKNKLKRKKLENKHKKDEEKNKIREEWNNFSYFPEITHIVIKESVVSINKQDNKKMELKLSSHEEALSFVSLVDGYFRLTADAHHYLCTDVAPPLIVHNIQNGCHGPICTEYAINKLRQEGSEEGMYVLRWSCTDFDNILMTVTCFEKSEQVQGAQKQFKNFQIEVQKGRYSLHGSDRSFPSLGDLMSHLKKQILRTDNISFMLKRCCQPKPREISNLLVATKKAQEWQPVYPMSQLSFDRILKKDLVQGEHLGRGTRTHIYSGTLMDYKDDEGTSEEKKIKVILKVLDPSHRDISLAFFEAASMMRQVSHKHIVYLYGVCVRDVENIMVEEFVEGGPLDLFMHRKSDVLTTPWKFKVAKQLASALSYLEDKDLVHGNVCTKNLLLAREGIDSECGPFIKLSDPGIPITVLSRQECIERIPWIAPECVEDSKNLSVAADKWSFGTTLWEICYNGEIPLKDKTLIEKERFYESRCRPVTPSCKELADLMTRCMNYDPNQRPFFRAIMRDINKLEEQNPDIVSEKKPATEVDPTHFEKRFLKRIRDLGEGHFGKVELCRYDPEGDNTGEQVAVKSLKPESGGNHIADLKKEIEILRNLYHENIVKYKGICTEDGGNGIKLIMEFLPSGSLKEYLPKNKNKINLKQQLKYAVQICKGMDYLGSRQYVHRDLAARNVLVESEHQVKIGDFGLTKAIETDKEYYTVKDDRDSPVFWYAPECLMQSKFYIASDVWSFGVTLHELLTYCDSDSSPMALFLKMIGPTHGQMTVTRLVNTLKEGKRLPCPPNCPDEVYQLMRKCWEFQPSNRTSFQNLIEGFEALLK
Another assay has as its target JAK2 (Homo sapiens (Human), UniProt O60674). In words: LanthaScreen JAK biochemical assay (JAK2). The following applies: for Ki: read-out: JAK 2 (pKi) (converted).
[2] abbreviates: IL-4 induced STAT6 phosphorylation, THP-1 cells.
Where [3] appears, read: THP-1 cells, IL-4 induced STAT6 phosphorylation.

JAK2, sequence (O60674 whole entry): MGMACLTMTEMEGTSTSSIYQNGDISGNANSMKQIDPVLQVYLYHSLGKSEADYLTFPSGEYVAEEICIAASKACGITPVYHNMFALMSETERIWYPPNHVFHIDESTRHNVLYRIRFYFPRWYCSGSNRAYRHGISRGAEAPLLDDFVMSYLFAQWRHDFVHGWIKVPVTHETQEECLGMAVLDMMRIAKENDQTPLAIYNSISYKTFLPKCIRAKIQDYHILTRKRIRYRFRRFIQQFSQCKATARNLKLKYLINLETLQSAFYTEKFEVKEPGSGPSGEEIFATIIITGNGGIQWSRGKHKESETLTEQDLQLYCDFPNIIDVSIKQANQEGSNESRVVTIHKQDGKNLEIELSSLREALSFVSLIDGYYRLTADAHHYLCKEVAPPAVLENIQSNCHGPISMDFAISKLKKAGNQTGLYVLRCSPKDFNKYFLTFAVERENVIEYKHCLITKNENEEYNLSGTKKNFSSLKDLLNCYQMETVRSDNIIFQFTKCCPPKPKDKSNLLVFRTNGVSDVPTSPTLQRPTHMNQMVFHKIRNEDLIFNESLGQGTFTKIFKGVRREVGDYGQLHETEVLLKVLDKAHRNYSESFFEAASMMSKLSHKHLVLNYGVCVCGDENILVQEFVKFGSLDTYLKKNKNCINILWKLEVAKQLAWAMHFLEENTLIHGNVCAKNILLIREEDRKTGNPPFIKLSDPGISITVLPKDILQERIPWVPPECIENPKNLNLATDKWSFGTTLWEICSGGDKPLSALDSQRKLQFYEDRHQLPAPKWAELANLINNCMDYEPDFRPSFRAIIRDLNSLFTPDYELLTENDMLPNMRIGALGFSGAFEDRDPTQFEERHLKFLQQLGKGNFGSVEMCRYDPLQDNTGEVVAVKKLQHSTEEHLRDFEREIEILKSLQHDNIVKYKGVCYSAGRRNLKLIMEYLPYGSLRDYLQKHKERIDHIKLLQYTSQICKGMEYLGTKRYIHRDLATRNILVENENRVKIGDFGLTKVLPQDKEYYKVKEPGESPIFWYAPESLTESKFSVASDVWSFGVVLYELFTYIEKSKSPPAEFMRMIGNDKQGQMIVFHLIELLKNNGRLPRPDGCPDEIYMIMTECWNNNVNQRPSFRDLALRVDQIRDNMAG

As to `Cc1cc(Nc2cc3ncccc3c(N[C@@H]3C[C@H]4CC[C@@H](C3)N4CC(=O)OC(C)C)n2)n[nH]1` [Example 1-4], in assay [1] (setting [2]), the “THP-1 IL4 pIC50” value was “B (B represents a pEC50 value between 6.7 and 7.5 (EC50 between 200 nM and 32 nM))”. Also, the “JAK 1 (pKi)” value on JAK1 was “B (B represents a pKi value between 9 and 10 (Ki between 1 nM and 0.1 nM))”. Further, the “JAK 2 (pKi)” value at JAK2 is “B (B represents a pKi value between 9 and 10 (Ki between 1 nM and 0.1 nM))”.
As to `Cc1cc(Nc2cc3ncccc3c(N[C@@H]3C[C@H]4CC[C@@H](C3)N4CC(=O)OC(C)(C)C)n2)n[nH]1` [Example 1-5], in assay [1] (setting [2]), the “THP-1 IL4 pIC50” value is “B (B represents a pEC50 value between 6.7 and 7.5 (EC50 between 200 nM and 32 nM))”. The “JAK 1 (pKi)” value on JAK1 was “B (B represents a pKi value between 9 and 10 (Ki between 1 nM and 0.1 nM))”. Also, the “JAK 2 (pKi)” value on JAK2 is “B (B represents a pKi value between 9 and 10 (Ki between 1 nM and 0.1 nM))”.
`CNC(=O)CN1[C@@H]2CC[C@H]1C[C@H](Nc1nc(Nc3cc(C)[nH]n3)cc3ncccc13)C2` [Example 1-7]: in assay [1] (setting [2]), the “THP-1 IL4 pIC50” value is recorded as “C (C represents a pEC50 value<6.7 (EC50>200 nM))”. For the same molecule, the “JAK 1 (pKi)” value on JAK1 is “B (B represents a pKi value between 9 and 10 (Ki between 1 nM and 0.1 nM))”. Further, at JAK2, the “JAK 2 (pKi)” value was “B (B represents a pKi value between 9 and 10 (Ki between 1 nM and 0.1 nM))”.
For the molecule `Cc1cc(Nc2cc3ncccc3c(N[C@@H]3C[C@H]4CC[C@@H](C3)N4CCC(F)(F)F)n2)n[nH]1` [Example 1-10], the “THP-1 IL4 pIC50” value in assay [1] (setting [2]) is given as “C (C represents a pEC50 value<6.7 (EC50>200 nM))”. In addition, the “JAK 1 (pKi)” value at JAK1 was “B (B represents a pKi value between 9 and 10 (Ki between 1 nM and 0.1 nM))”. The “JAK 2 (pKi)” value on JAK2 was “B (B represents a pKi value between 9 and 10 (Ki between 1 nM and 0.1 nM))”.
As for `Cc1cc(Nc2cc3ncccc3c(N[C@@H]3C[C@H]4CC[C@@H](C3)N4Cc3cccnc3)n2)n[nH]1` [Example 1-16], in assay [1] (setting [2]), the “THP-1 IL4 pIC50” value is “B (B represents a pEC50 value between 6.7 and 7.5 (EC50 between 200 nM and 32 nM))”. Further, the “JAK 1 (pKi)” value at JAK1 is “B (B represents a pKi value between 9 and 10 (Ki between 1 nM and 0.1 nM))”. The “JAK 2 (pKi)” value at JAK2 is “B (B represents a pKi value between 9 and 10 (Ki between 1 nM and 0.1 nM))”.
On to `Cc1cc(Nc2cc3ncccc3c(N[C@@H]3C[C@H]4CC[C@@H](C3)N4C3CCOC3=O)n2)n[nH]1` (some centres unmarked) [Example 1-26], for which the Ki at JAK1 and at JAK2 was 0.1 to 1 nM throughout.
As for `Cc1cc(Nc2cc3ncccc3c(N[C@@H]3C[C@H]4CC[C@@H](C3)N4C3CCOC3=O)n2)n[nH]1` (some centres unmarked) [Example 1-27], on JAK1, the “JAK 1 (pKi)” value was “B (B represents a pKi value between 9 and 10 (Ki between 1 nM and 0.1 nM))”. The “JAK 2 (pKi)” value at JAK2 was “B (B represents a pKi value between 9 and 10 (Ki between 1 nM and 0.1 nM))”.
Take `COC(=O)CN1[C@@H]2CCC[C@H]1C[C@H](Nc1nc(Nc3cc(C)[nH]n3)cc3ncccc13)C2` [Example 1-32]: the “THP-1 IL4 pIC50” value in assay [1] (setting [2]) is “C (C represents a pEC50 value<6.7 (EC50>200 nM))”. Besides, the “JAK 2 (pKi)” value at JAK2 is on record as “A (A represents a pKi value≥10 (Ki≤0.1 nM))”.
`Cc1cc(Nc2cc3ncccc3c(N[C@@H]3C[C@H]4CCC[C@@H](C3)N4CC3COC(=O)O3)n2)n[nH]1` (some centres unmarked) [Example 1-58]: in assay [1] (setting [2]), the “THP-1 IL4 pIC50” value is “B (B represents a pEC50 value between 6.7 and 7.5 (EC50 between 200 nM and 32 nM))”. On JAK2, the “JAK 2 (pKi)” value is “A (A represents a pKi value≥10 (Ki≤0.1 nM))”.
On to `COC(=O)C1(C(=O)N2[C@@H]3CCC[C@H]2C[C@H](Nc2nc(Nc4cc(C)[nH]n4)cc4ncccc24)C3)CC1` [Example 2-21], for which the “THP-1 IL4 pIC50” value in assay [1] (setting [2]) was “B (B represents a pEC50 value between 6.7 and 7.5 (EC50 between 200 nM and 32 nM))”. The “JAK 2 (pKi)” value at JAK2 is “B (B represents a pKi value between 9 and 10 (Ki between 1 nM and 0.1 nM))”.
In the case of `Cc1cc(Nc2cc3ncccc3c(N[C@@H]3C[C@H]4CCC[C@@H](C3)N4C(=O)C3(C)CCCC3)n2)n[nH]1` [Example 2-23], the “THP-1 IL4 pIC50” value in assay [1] (setting [2]) was “B (B represents a pEC50 value between 6.7 and 7.5 (EC50 between 200 nM and 32 nM))”. Also, on JAK2, the “JAK 2 (pKi)” value is “B (B represents a pKi value between 9 and 10 (Ki between 1 nM and 0.1 nM))”.
As to `Cc1cc(Nc2cc3nc(CN4CCOCC4)ccc3c(N[C@@H]3C[C@H]4CC[C@@H](C3)N4CCC#N)n2)n[nH]1` [Example 5-18], the “THP-1 IL4 pIC50” value in assay [1] (setting [2]) is “B (B represents a pEC50 value between 6.7 and 7.5 (EC50 between 200 nM and 32 nM))”. The “JAK 2 (pKi)” value on JAK2 is reported as “A (A represents a pKi value≥10 (Ki≤0.1 nM))”.
As for `Cc1cc(Nc2cc3nc(CN4CCOCC4)ccc3c(N[C@@H]3C[C@H]4CC[C@@H](C3)N4CC(C)C)n2)n[nH]1` [Example 5-19], the “THP-1 IL4 pIC50” value in assay [1] (setting [2]) was “B (B represents a pEC50 value between 6.7 and 7.5 (EC50 between 200 nM and 32 nM))”. In addition, the “JAK 1 (pKi)” value at JAK1 was “B (B represents a pKi value between 9 and 10 (Ki between 1 nM and 0.1 nM))”.
With `Cc1cc(Nc2cc3nc(CN4CCOCC4)ccc3c(N[C@@H]3C[C@H]4CCC[C@@H](C3)N4CC(F)(F)F)n2)n[nH]1` [Example 5-29], the “THP-1 IL4 pIC50” value in assay [1] (setting [2]) is “B (B represents a pEC50 value between 6.7 and 7.5 (EC50 between 200 nM and 32 nM))”. The “JAK 2 (pKi)” value on JAK2 was “A (A represents a pKi value≥10 (Ki≤0.1 nM))”.
As for `Cc1cnc2cc(Nc3cc(C)[nH]n3)nc(N[C@@H]3C[C@H]4CCC[C@@H](C3)N4C(=O)OCC(C)C)c2c1` [Example 6-7], in assay [1] (setting [3]), the “THP-1 IL4 pIC50” value is “B (B represents a pEC50 value between 6.7 and 7.5 (EC50 between 200 nM and 32 nM))”. In addition, the “JAK 2 (pKi)” value on JAK2 was “B (B represents a pKi value between 9 and 10 (Ki between 1 nM and 0.1 nM))”.
With `COc1cnc2cc(Nc3cc(C)[nH]n3)nc(N[C@@H]3C[C@H]4CCC[C@@H](C3)N4CCCF)c2c1` [Example 6-26], the “THP-1 IL4 pIC50” value in assay [1] (setting [3]) is “B (B represents a pEC50 value between 6.7 and 7.5 (EC50 between 200 nM and 32 nM))”. For the same molecule, the “JAK 1 (pKi)” value on JAK1 is “B (B represents a pKi value between 9 and 10 (Ki between 1 nM and 0.1 nM))”.
Regarding `COC(=O)c1cnc2cc(Nc3cc(C)[nH]n3)nc(N[C@@H]3C[C@H]4CC[C@@H](C3)N4C(=O)C(F)F)c2c1` [Example 6-37], the Ki at JAK1 and at JAK2 was 0.1 to 1 nM each time.
For the molecule `COC(=O)c1cnc2cc(Nc3cc(C)[nH]n3)nc(N[C@@H]3C[C@H]4CC[C@@H](C3)N4C(=O)CN(C)C)c2c1` [Example 6-39], the “THP-1 IL4 pIC50” value in assay [1] (setting [3]) is reported as “C (C represents a pEC50 value<6.7 (EC50>200 nM))”. Also, at JAK1, the “JAK 1 (pKi)” value was “B (B represents a pKi value between 9 and 10 (Ki between 1 nM and 0.1 nM))”.
With `COc1ccnc2cc(Nc3cc(C)[nH]n3)nc(N[C@@H]3C[C@H]4CC[C@@H](C3)N4C(=O)OCC(C)C)c12` [Example 7-1], the “THP-1 IL4 pIC50” value in assay [1] (setting [3]) is “B (B represents a pEC50 value between 6.7 and 7.5 (EC50 between 200 nM and 32 nM))”. Moreover, the “JAK 1 (pKi)” value at JAK1 was “B (B represents a pKi value between 9 and 10 (Ki between 1 nM and 0.1 nM))”.
Turning to `Cc1cc(Nc2nc(N[C@@H]3C[C@H]4CCC[C@@H](C3)N4C(=O)CN(C)C)c3cccnc3c2F)n[nH]1` [Example 8-15], the “THP-1 IL4 pIC50” value in assay [1] (setting [3]) was “C (C represents a pEC50 value<6.7 (EC50>200 nM))”. Besides, at JAK1, the “JAK 1 (pKi)” value was “B (B represents a pKi value between 9 and 10 (Ki between 1 nM and 0.1 nM))”.
As for `COC(=O)c1cnc2cc(Nc3cc(C)[nH]n3)nc(N[C@@H]3C[C@H]4CC[C@@H](C3)N4C3CCCOC3=O)c2c1` (stereo partly drawn) [Example 16, Methyl 7-((5-methyl-1H-pyrazol-3-yl)amino)-5-(((1R,3s,5S)-8-(2-oxotetrahydro-2H-pyran-3-yl)-8-azabicyclo[3.2.1]octan-3-yl)amino)-1,6-naphthyridine-3-carboxylate], the IC50 in assay [1] (Homo sapiens, THP-1, read-out: THP-1 IL4 pIC50 (converted)) is 31.6 to 200 nM. For the same molecule, at JAK1, the Ki is 0.1 to 1 nM.
